{"source": "ChEMBL document CHEMBL1201862", "about": "“PubChem BioAssay data set” (2004)", "key": {"Cysteine protease ATG4B": {"molecular_target": "T1, Cysteine protease ATG4B (Homo sapiens, UniProt Q9Y4P1)", "T1 sequence (Q9Y4P1 whole entry)": "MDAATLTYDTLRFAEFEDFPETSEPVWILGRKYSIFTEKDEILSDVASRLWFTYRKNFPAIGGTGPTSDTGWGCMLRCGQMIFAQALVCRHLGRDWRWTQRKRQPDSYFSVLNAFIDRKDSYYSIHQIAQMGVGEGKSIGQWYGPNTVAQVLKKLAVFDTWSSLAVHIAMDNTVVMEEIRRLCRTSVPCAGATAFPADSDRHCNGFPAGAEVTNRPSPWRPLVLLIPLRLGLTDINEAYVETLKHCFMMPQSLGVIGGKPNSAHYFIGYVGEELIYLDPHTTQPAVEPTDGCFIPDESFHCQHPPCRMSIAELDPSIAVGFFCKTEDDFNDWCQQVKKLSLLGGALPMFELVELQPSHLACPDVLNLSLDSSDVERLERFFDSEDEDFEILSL", "type": "functional"}, "Phospholipase A2": {"molecular_target": "Phospholipase A2 (Homo sapiens, UniProt P04054)", "sequence (P04054 whole entry)": "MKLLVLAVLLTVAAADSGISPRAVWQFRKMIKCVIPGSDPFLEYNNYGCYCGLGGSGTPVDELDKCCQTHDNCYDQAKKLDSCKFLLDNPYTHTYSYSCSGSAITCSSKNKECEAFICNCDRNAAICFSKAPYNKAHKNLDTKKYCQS", "type": "functional"}, "[1]": {"experiment": "inhibitors of intracellular T. cruzi replication, confirmation, NIH3T3 host cells, beta-gal luminescence (AID 2044);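 also: luminescent beta-galactosidase reporter signal from transgenic T. cruzi replicating inside host cells; inhibitors lower the luminescence signal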", "type": "functional, cell-based"}, "[2]": {"experiment": "cytotoxicity toward NIH3T3 fibroblasts, dose response, counter-screen, cell-based, ATP luminescence, mouse fibroblasts (AID 2010);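 also: cells exposed to compound for about 90 hours before reading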", "type": "functional"}, "[3]": {"molecular_target": "DNA dC->dU-editing enzyme APOBEC-3G (Homo sapiens, UniProt Q9HC16)", "sequence (Q9HC16 whole entry)": "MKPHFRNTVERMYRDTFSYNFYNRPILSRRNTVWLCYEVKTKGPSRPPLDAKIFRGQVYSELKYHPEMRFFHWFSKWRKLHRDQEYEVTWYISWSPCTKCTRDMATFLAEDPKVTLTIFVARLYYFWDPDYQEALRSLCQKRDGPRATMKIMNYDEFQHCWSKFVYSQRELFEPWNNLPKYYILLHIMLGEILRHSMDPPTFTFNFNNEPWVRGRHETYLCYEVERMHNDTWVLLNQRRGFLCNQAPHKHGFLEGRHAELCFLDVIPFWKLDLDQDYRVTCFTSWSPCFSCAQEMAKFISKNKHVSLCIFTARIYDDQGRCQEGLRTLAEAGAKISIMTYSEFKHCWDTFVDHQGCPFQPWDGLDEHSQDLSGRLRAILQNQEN", "experiment": "Dose Response confirmation of small molecule APOBEC3G DNA Deaminase Inhibitors via a fluorescence-based single-stranded DNA deaminase assay. [Related pubchem assays (depositor defined):AID493012, AID493028]", "type": "functional"}, "[4]": {"experiment": "Shn3 3'UTR reporter inhibitors, dose response, cell-based, Clone20 osteoblasts, firefly luciferase, cherry-picked (AID 624132)", "type": "functional"}, "[5]": {"experiment": "HepG2 cell cytotoxicity, dose response, cytotoxicity control for Shn3 inhibitor project, CellTiter-Glo, cherry-picked (AID 624134)", "type": "functional, cell-based"}, "[6]": {"experiment": "control 3'UTR Renilla luciferase suppression, dose response, counter-screen for Shn3 inhibitor project, cell-based, Clone20-Shn3RL, cherry-picked (AID 624133)", "type": "functional"}, "[7]": {"experiment": "inhibitors of HIV Env-driven cell fusion, dose response, cherry-pick (AID 652057)", "type": "functional, cell-based"}, "[8]": {"experiment": "ZM109 Env clade C HIV-1 fusion inhibitors, dose response, HeLa effector, CEM target cells, luciferase, cherry-pick (AID 652058)", "type": "functional, cell-based"}, "[9]": {"experiment": "inhibitors of clade B AD8 Env fusion, dose response, cell-based, cherry-pick (AID 652062);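 also: potency is for inhibitors of fusion seen as a drop in luminescence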", "type": "functional"}, "[10]": {"molecular_target": "Glyceraldehyde-3-phosphate dehydrogenase (Homo sapiens, UniProt P04406)", "sequence (P04406 whole entry)": "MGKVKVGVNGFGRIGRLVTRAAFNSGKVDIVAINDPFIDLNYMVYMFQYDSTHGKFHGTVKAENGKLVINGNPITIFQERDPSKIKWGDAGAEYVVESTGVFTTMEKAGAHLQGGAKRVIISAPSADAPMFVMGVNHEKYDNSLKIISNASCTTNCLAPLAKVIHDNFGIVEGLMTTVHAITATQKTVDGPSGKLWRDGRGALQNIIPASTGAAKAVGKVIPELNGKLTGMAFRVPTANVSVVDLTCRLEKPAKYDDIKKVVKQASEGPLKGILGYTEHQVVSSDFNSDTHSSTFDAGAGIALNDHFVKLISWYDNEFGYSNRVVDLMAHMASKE"}, "[11]": {"molecular_target": "T2, Alkaline phosphatase, tissue-nonspecific isozyme (Homo sapiens, UniProt P05186)", "T2 sequence (P05186 whole entry)": "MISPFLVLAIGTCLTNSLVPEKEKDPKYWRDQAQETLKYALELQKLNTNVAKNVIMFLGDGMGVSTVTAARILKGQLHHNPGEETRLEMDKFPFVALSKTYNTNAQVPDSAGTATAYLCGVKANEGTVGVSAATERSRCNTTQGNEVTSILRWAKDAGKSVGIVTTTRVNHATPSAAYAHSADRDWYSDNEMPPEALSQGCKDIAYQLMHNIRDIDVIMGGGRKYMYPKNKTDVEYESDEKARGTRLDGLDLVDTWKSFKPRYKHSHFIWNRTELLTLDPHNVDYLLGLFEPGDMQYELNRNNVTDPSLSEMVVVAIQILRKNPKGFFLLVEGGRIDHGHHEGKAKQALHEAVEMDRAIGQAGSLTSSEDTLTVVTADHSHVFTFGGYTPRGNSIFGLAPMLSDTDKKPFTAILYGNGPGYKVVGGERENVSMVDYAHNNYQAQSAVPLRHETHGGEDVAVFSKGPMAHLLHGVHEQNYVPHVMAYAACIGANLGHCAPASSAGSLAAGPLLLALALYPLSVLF", "experiment": "human TNAP enzyme inhibitors, SAR follow-up, biochemical, luminescent, dose response (AID 1056)"}, "[12]": {"molecular_target": "T3, Corticotropin-releasing factor receptor 2/Corticotropin-releasing factor-binding protein (Homo sapiens, UniProt P24387+Q13324)", "T3 sequence (Q13324 whole entry)": "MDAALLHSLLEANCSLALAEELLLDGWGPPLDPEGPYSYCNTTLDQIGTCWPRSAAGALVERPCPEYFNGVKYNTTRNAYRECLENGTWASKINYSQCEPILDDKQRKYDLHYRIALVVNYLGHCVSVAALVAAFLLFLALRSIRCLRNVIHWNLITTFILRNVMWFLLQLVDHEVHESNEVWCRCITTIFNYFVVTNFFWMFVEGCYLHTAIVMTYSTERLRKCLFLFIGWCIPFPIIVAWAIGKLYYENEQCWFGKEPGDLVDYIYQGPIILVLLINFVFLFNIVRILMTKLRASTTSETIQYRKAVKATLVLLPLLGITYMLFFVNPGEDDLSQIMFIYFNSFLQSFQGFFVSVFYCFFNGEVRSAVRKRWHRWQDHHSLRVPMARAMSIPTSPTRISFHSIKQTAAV", "T3 sequence (P24387 whole entry)": "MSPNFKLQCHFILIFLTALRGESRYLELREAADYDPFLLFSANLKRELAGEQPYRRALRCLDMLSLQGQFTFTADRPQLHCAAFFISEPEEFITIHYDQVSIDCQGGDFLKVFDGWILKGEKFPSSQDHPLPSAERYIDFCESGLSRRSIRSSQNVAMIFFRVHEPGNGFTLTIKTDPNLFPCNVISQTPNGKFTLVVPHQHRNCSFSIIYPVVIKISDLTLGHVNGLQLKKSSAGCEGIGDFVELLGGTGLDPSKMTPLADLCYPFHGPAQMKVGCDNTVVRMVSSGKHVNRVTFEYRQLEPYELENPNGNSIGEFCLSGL", "experiment": "Dose Response confirmation of uHTS hits for small molecule antagonists of the CRF-binding protein and CRF-R2 receptor complex.", "type": "functional", "conditions": "read-out: IC50_Mean"}, "[13]": {"molecular_target": "T3, Corticotropin-releasing factor receptor 2/Corticotropin-releasing factor-binding protein", "experiment": "activators of CRF receptor 2 with binding protein – uHTS hits, confirmation (AID 602473)", "type": "functional", "conditions": "read-out: EC50_Mean"}, "[14]": {"experiment": "CRF-BP/CRF-R2 complex antagonists, dose response, cell-based, uHTS hits, 384-well (AID 651639)", "type": "functional, Homo sapiens", "conditions": "read-out: IC50_Mean"}, "cells": {"experiment": "cells", "type": "functional"}, "Estrogen receptor beta": {"molecular_target": "Estrogen receptor beta (Homo sapiens, UniProt Q92731)", "sequence (Q92731 whole entry)": "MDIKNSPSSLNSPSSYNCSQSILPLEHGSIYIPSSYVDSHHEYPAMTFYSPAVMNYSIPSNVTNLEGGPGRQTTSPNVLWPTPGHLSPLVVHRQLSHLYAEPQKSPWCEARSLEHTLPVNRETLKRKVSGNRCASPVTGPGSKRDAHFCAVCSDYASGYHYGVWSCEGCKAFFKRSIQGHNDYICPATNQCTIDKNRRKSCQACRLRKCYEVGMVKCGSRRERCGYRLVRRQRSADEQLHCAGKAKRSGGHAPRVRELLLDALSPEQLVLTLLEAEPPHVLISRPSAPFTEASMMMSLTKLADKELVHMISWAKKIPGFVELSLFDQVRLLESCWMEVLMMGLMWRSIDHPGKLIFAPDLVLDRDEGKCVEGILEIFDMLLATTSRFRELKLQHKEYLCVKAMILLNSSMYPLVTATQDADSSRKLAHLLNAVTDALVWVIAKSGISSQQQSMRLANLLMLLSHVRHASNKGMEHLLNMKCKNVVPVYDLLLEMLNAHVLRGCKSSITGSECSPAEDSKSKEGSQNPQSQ"}}, "note": "Activity calls are given as the source filed them.", "data": [{"smiles": "O=C(COc1ccccc1-c1ccccc1)NCc1cccc(Cl)c1", "values": [{"measurement": "IC50", "setting": "Cysteine protease ATG4B", "result": "11.4 µM (active)"}, {"measurement": "IC50", "setting": "Phospholipase A2", "result": "7.72 µM (active)"}]}, {"smiles": "CCOc1ccc(NCc2ccccc2OCc2cccc(F)c2)cc1", "values": [{"measurement": "EC50", "setting": "[1]", "result": "1.29 µM (active)"}, {"measurement": "EC50", "setting": "[2]", "result": "> 60 µM (not active)"}, {"measurement": "IC50", "setting": "Cysteine protease ATG4B", "result": "8.88 µM (active)"}, {"measurement": "IC50", "setting": "Phospholipase A2", "result": "5.3 µM (active)"}]}, {"smiles": "O=[N+]([O-])c1ccc(N2CCN(C(=S)c3cccc([N+](=O)[O-])c3)CC2)cc1", "values": [{"measurement": "IC50", "setting": "[3]", "result": "47.7 µM (active)"}]}, {"smiles": "CSc1ccc(CN(C)C(=O)c2cccc(S(=O)(=O)N3CCN(Cc4ccccc4)CC3)c2)cc1", "values": [{"measurement": "AC50", "setting": "[4]", "result": "2.89 µM (active)"}, {"measurement": "AC50", "setting": "[5]", "result": "64.6 µM (active)"}, {"measurement": "AC50", "setting": "[6]", "result": "14.3 µM (active)"}, {"measurement": "AC50", "setting": "[7]", "result": "10.3 µM (active)"}, {"measurement": "AC50", "setting": "[8]", "result": "10.3 µM (active)"}, {"measurement": "AC50", "setting": "[9]", "result": "8.39 µM (active)"}]}, {"smiles": "COc1ccc(S(=O)(=O)Nc2ccc3ccccc3c2)cc1", "values": [{"measurement": "IC50", "setting": "[10]", "result": "> 100 µM (not active)"}, {"measurement": "IC50", "setting": "[11]", "result": "> 100 µM (inactive)"}]}, {"smiles": "O=C(Oc1c(Br)cc([N+](=O)[O-])cc1Br)c1cccnc1", "values": [{"measurement": "IC50", "setting": "[12]", "result": "9.69 µM (active)"}, {"measurement": "EC50", "setting": "[13]", "result": "> 53 µM (inactive)"}, {"measurement": "IC50", "setting": "[14]", "result": "> 20 µM (inactive)"}]}, {"smiles": "Cn1c(COc2ccccc2)nnc1SCC(=O)c1cccc([N+](=O)[O-])c1", "values": [{"measurement": "IC50", "setting": "[12]", "result": "23.4 µM (active)"}, {"measurement": "EC50", "setting": "[13]", "result": "> 53 µM (inactive)"}, {"measurement": "IC50", "setting": "[14]", "result": "7.77 µM (active)"}]}, {"smiles": "CCCCNC(=O)COC(=O)c1cc(F)c(F)cc1Cl", "values": [{"measurement": "IC50", "setting": "cells", "result": "8.58 µM (active)"}]}, {"smiles": "Cc1ccccc1Cn1ccc(NC(=O)c2cc3ncc(Br)cn3n2)n1", "values": [{"measurement": "IC50", "setting": "[12]", "result": "< 0.368 µM (active)"}, {"measurement": "EC50", "setting": "[13]", "result": "> 53 µM (inactive)"}, {"measurement": "IC50", "setting": "[14]", "result": "2.65 µM (active)"}]}, {"smiles": "O=C(CNC(=O)c1ccco1)OCc1ccc(Cl)cc1", "values": [{"measurement": "IC50", "setting": "Estrogen receptor beta", "result": "> 50 µM (not active)"}]}, {"smiles": "CCn1cc(SCC(=O)NCc2ccc3c(c2)OCO3)c2ccccc21", "values": [{"measurement": "IC50", "setting": "Estrogen receptor beta", "result": "> 50 µM (not active)"}]}, {"smiles": "NS(=O)(=O)c1ccc(CCNC2CC(=O)N(CCc3ccccc3)C2=O)cc1", "note": "(stereo not drawn)", "values": [{"measurement": "IC50", "setting": "Estrogen receptor beta", "result": "> 50 µM (not active)"}]}, {"smiles": "Cc1ccc2cccc(Oc3ncnc4scc(-c5ccccc5)c34)c2n1", "values": [{"measurement": "IC50", "setting": "[12]", "result": "7.86 µM (active)"}, {"measurement": "EC50", "setting": "[13]", "result": "> 53 µM (inactive)"}, {"measurement": "IC50", "setting": "[14]", "result": "9.74 µM (active)"}]}, {"smiles": "O=C1Nc2cc(Cl)c(Cl)cc2N(O)N1c1cc(Cl)cc(Cl)c1", "values": [{"measurement": "IC50", "setting": "Cysteine protease ATG4B", "result": "14.5 µM (active)"}, {"measurement": "IC50", "setting": "Phospholipase A2", "result": "13.7 µM (active)"}]}]}
